Reference: ChEMBL document CHEMBL4385613, “Discovery of Conformational Control Inhibitors Switching off the Activated c-KIT and Targeting a Broad Range of Clinically Relevant c-KIT Mutants” (J Med Chem, 2019)
Active and inactive are the calls of the source. The calls are words filed in the database; no cut-off is given here.

Experiments:
[1] = target: Mast/stem cell growth factor receptor Kit (Homo sapiens, UniProt P10721); assay: Inhibition of recombinant human N-terminal 6x-His-tagged c-KIT (547 to 935 residues)/(694 to 753 residues deletion) expressed in baculovirus infected Sf9 insect cells assessed as decrease in poly (Glu,Tyr) 4:1 phosphorylation measured after 150 mins in presence of ATP by ADP-glo based luminescence assay
GISTT1 [2] = assay: Antiproliferative activity against human GISTT1 cells harboring heterozygous V560-Y578 del mutation assessed as reduction in cell viability by methylene blue staining based assay; assay type: functional
GISTT1 [3] = assay: Antiproliferative activity against human GISTT1 cells harboring heterozygous V560-Y578 deletion mutant assessed as reduction in cell viability by MTS assay; assay type: functional
GIST430 [4] = assay: Antiproliferative activity against human GIST430 cells harboring c-KIT exon 11 primary in-frame V560-L576 deletion mutant and exon 13 heterozygous secondary missense V654A mutant assessed as reduction in cell viability by MTS assay; assay type: functional
GIST48 [5] = assay: Antiproliferative activity against human GIST48 cells harboring c-KIT exon 11 homozygous primary missense V560D mutant and exon 17 heterozygous secondary D820A mutant assessed as reduction in cell viability by MTS assay; assay type: functional
GIST430 [6] = assay: (§1) Antitumor activity against human GIST430 cells harboring c-KIT exon 11 primary in-frame V560-L576 deletion mutant and exon 13 heterozygous secondary missense V654A mutant xenografted in NOD-SCID mouse assessed as tumor growth inhibition at 40 mg/kg, po administered for 2 weeks with 2 days rest after day 5 and measured thrice per week up to 21 days during compound dosing; assay type: functional, organism-based
GIST882 [7] = assay: Antiproliferative activity against human GIST882 cells harboring c-KIT exon 13 homozygous primary K642E mutant assessed as reduction in cell viability by MTS assay; assay type: functional
GIST430 [8] = assay: as §1, with “regression” for “growth inhibition”; assay type: functional, organism-based
GIST48 [9] = assay: Antiproliferative activity against human GIST48 cells harboring c-KIT exon 11 homozygous primary missense V560D mutant and exon 17 heterozygous secondary D820A mutant assessed as reduction in cell viability by methylene blue staining based assay; assay type: functional
GIST430 [10] = assay: Antiproliferative activity against human GIST430 cells harboring c-KIT exon 11 primary in-frame V560-L576 deletion mutant and exon 13 heterozygous secondary missense V654A mutant assessed as reduction in cell viability by methylene blue staining based assay; assay type: functional
GIST882 [11] = assay: Antiproliferative activity against human GIST882 cells harboring c-KIT exon 13 homozygous primary K642E mutant assessed as reduction in cell viability by methylene blue staining based assay; assay type: functional

Row | IC50 [1] | SMILES | GI50 (GISTT1 [2]) | GI50 (GISTT1 [3]) | also measured
1 | 86 nM | CCc1cc(NC(=O)Nc2ccc(-c3cnc(Nc4nc(C)nc(N5CCN(CC)CC5)n4)s3)cc2)no1 | 13 nM | 13 nM | 
2 | 71 nM | CCc1cc(NC(=O)Nc2ccc(-c3cnc(Nc4cc(N5CCN(CCO)CC5)ncn4)s3)cc2)no1 | 3.3 nM | 3.3 nM | 
3 | 43 nM | CCc1cc(NC(=O)Nc2ccc(-c3cnc(Nc4cc(N5CCN(CC)CC5)ncn4)s3)cn2)no1 | 1 nM | 1 nM | 
4 | 38 nM | CCc1cc(NC(=O)NCC#Cc2cnc(Nc3cc(N4CCN(CC)CC4)ncn3)s2)no1 | 9.9 nM | 9.9 nM | 
5 | 82 nM | CCc1cc(NC(=O)N2CC=C(c3cnc(Nc4cc(N5CCN(CC)CC5)nc(C)n4)s3)CC2)no1 | 4.9 nM | 4.9 nM | 
6 | 98 nM | CCN1CCN(c2cc(Nc3ncc(-c4ccc(NC(N)=O)cc4)s3)ncn2)CC1 | 86 nM | 86 nM | 
7 | 54 nM | CCN1CCN(c2cc(Nc3ncc(-c4ccc(NS(=O)(=O)c5ccccc5)cc4)s3)nc(C)n2)CC1 | 42 nM | 42 nM | 
8 | 130 nM | CCN1CCN(c2cc(Nc3ncc(-c4ccc(NC(C)=O)cc4)s3)ncn2)CC1 | 25 nM | 25 nM | 
9 | 15 nM | CCc1cc(NC(=O)Nc2ccc(-c3cnc(Nc4cc(N5CCC(N)C5)nc(C)n4)s3)cc2)no1 (configuration not stated) | 6.4 nM | 6.4 nM | 
10 | 122 nM | CCc1cc(NC(=O)Nc2ccc(-c3sc(Nc4cc(N5CCN(CC)CC5)ncn4)nc3C)cc2)no1 | 3.3 nM | 3.3 nM | 
11 | 50 nM | CCc1cc(NC(=O)NCCCc2cnc(Nc3cc(N4CCN(CC)CC4)nc(C)n3)s2)no1 | 10 nM | 10 nM | 
12 |  | CCN(CC)CCNC(=O)c1c(C)[nH]c(/C=C2\C(=O)Nc3ccc(F)cc32)c1C [SUNITINIB] | 38 nM | 38 nM | GI50 (GIST430 [4]): 47 nM; GI50 (GIST48 [5]): 2000 nM; TGI (GIST430 [6]): Active; GI50 (GIST882 [7]): 64 nM; Activity (GIST430 [8]): inactive; GI50 (GIST48 [9]): 2000 nM; GI50 (GIST430 [10]): 47 nM; GI50 (GIST882 [11]): 64 nM
13 | 950 nM | CCc1cc(NC(=O)Nc2ccc(-c3csc(Nc4cc(N5CCN(CC)CC5)nc(C)n4)n3)cc2)no1 | > 1000 nM | > 1000 nM | 
14 | 97 nM | CCc1cc(NC(=O)Nc2ccc(-c3cnc(Nc4cc(N5CCN(CC)CC5)nc(C)n4)s3)cc2)no1 | 3.2 nM | 3.2 nM | 
15 | 20 nM | Cc1nc(Nc2ncc(-c3ccc(NC(=O)Nc4ccccc4)cc3)s2)cc(N2CCN(C)CC2)n1 | 5.4 nM | 5.4 nM | 
